These results are taken from patent publication US11312727B1, “Macrocyclic flu endonuclease inhibitors” (Janssen BioPharma, Inc., priority 2018, dated 2022).

pEC50: −log10 of the molar value. Like-named read-outs stand apart in the source and are kept apart here. Some results are limits rather than exact numbers.

Data set [1] is described as follows: in vitro. The following applies: human, CC50, uninfected A549 cells, CellTiter-Glo.
Data set [2] has as its system Influenza strain A549 A/WSN/33 (H1N1). The data set is described as follows: microbe, parasite or virus in culture. The note with it: A549 cells, influenza A/WSN/33 (H1N1), 20 hours incubation, read-out: A549_A(H1N1) EC50. The format is cell-based.

The CC50 is the concentration at which the toxic effect on the cells reaches its halfway point. A word on the pEC50: it is the negative decadic logarithm of the EC50, by convention in mol/L. Take `CC[C@H]1/C=C/COc2c(ccc(Cl)c2Cl)[C@H](c2ccccc2)N2CN1C(=O)c1c(O)c(=O)ccn12` (single isomer, unassigned) [Compound 121BB, (9*S,18*S,*E)-3,4-dichloro-9-ethyl-12-hydroxy-18-phenyl-6,9-dihydro-18H-10,17-methanobenzo[b]pyrido[1,2-f][1]oxa[5,6,9]triazacyclotridecine-11,13-dione]: in data set [1], the CC50 was over 200 nM. The negative-log EC50 (pEC50) in data set [2] (Influenza A virus, A549, 20 h) is 7.22.

`O=C1c2c(O)c(=O)ccn2N2CN1C/C=C\COc1c(ccc(F)c1F)[C@@H]2c1ccccc1C(F)F` (single isomer, unassigned) [Compound 165B, (18*S,*Z)-18-(2-(difluoromethyl)phenyl)-3,4-difluoro-12-hydroxy-6,9-dihydro-18H-10,17-methanobenzo[b]pyrido[1,2-f][1]oxa[5,6,9]triazacyclotridecine-11,13-dione] came in with a CC50 in data set [1] of over 100 nM. Moreover, in data set [2] (Influenza A virus, A549, 20 h), the pEC50 was under 7.30.

`C[C@@H]1/C=C/COc2ccccc2[C@H](c2ccccc2)N2CN1C(=O)c1c(O)c(=O)ccn12` (single isomer, unassigned) [Compound 29BA, (9*R, 18*S, E)-12-hydroxy-9-methyl-18-phenyl-6,9-dihydro-18H-10,17-methanobenzo[b]pyrido[1,2-f][1]oxa[5,6,9]triazacyclotridecine-11,13-dione] came in with a cytotoxic concentration (CC50) in data set [1] of 83100 nM. The negative logarithm of the EC50 (pEC50) in data set [2] (Influenza A virus, A549, 20 h) is 5.77.

Consider `O=C1c2c(O)c(=O)ccn2N2CN1CC[C@H]1C[C@H]1COc1cccc3c1[C@@H]2c1ccccc1SC3` (single isomer, unassigned) [Compound 144AB, (1*R,13*R,15*R)-7-hydroxy-17-oxa-24-thia-2,3,10-triazaheptacyclo[16.12.1.12,10.03,8.013,15.022,31.025,30]dotriaconta-4,18,20,22(31),25(30),26,28-heptaene-6,9-dione], for which the cytotoxic concentration (CC50) in data set [1] is over 200 nM. Further, in data set [2] (Influenza A virus, A549, 20 h), the pEC50 was under 7.00.

Regarding `O=C1c2c(O)c(=O)ccn2N2CN1C/C=C\COc1cccc3c1[C@@H]2c1ccccc1CC3` (single isomer, unassigned) [Compound 33B, (19b*S,Z)-4-hydroxy-7,10,15,19b-tetrahydro-14H-13,12-(epiprop[1]en[1]yl[3]ylidene)-6,20-methanobenzo[3,4]cyclohepta[1,2-c]pyrido[1,2-f][1]oxa[5,6,9]triazacyclotridecine-3,5-dione], in data set [1], the CC50 was over 2000 nM. Also, in data set [2] (Influenza A virus, A549, 20 h), the pEC50 was 7.82.

In data set [1], `COC[C@H]1N2C/C=C\COc3ccccc3[C@H](c3ccccc3)N1n1ccc(=O)c(O)c1C2=O` (single isomer, unassigned) [Compound 109B, (18*S,19*S,*Z)-12-hydroxy-19-(methoxymethyl)-18-phenyl-6,9-dihydro-18H-10,17-methanobenzo[b]pyrido[1,2-f][1]oxa[5,6,9]triazacyclotridecine-11,13-dione] yielded a CC50 of over 200 nM. In addition, the pEC50 in data set [2] (Influenza A virus, A549, 20 h) is under 7.00.

The compound `O=C1c2c(O)c(=O)ccn2N2CN1CCCCOc1ccccc1[C@H]2c1ccccc1` [Compound 8A, (18R)-12-hydroxy-18-phenyl-6,7,8,9-tetrahydro-18H-10,17-methanobenzo[b]pyrido[1,2-f][1]oxa[5,6,9]triazacyclotridecine-11,13-dione] displayed a CC50 in data set [1] of over 2000 nM. Also, in data set [2] (Influenza A virus, A549, 20 h), the pEC50 was 7.89.

Regarding `O=C1c2c(O)c(=O)ccn2N2CN1C1(/C=C/COc3c(ccc(F)c3F)[C@@H]2c2ccccc2)CCC1` [Compound 146B, (18'S,E)-3′,4′-difluoro-12′-hydroxy-18′-phenyl-6′H,18′H-spiro[cyclobutane-1,9′-[10,17]methanobenzo[b]pyrido[1,2-f][1]oxa[5,6,9]triazacyclotridecine]-11′,13′-dione], in data set [1], the CC50 is over 10000 nM. In addition, the pEC50 in data set [2] (Influenza A virus, A549, 20 h) was 6.47.

`CC[C@H]1/C=C/COc2ccccc2[C@@H](c2ccccc2)N2CN1C(=O)c1c(O)c(=O)ccn12` [Compound 39BB, (9S,18R,E)-9-ethyl-12-hydroxy-18-phenyl-6,9-dihydro-18H-10,17-methanobenzo[b]pyrido[1,2-f][1]oxa[5,6,9]triazacyclotridecine-11,13-dione]: the CC50 in data set [1] was over 2000 nM. In data set [2] (Influenza A virus, A549, 20 h), the negative-log EC50 (pEC50) was 8.15.

As to `C[C@@H]1/C=C\COc2cc(F)c(F)c3c2[C@H](c2ccccc2SC3)N2CN1C(=O)c1c(O)c(=O)ccn12` (single isomer, unassigned) [Compound 162C, (13*R,21a*R,*Z)-24,25-difluoro-16-hydroxy-13-methyl-6,10,13,21a-tetrahydro-7,8-(epiprop[1]en[1]yl[3]ylidene)-14,21-methanobenzo[6,7]thiepino[4,5-c]pyrido[1,2-f][1]oxa[5,6,9]triazacyclotridecine-15,17-dione], the half-maximal cytotoxic concentration (CC50) in data set [1] is over 100 nM. Moreover, in data set [2] (Influenza A virus, A549, 20 h), the pEC50 was 8.00.

On to `O=C1c2c(O)c(=O)ccn2N2CN1C/C=C\COc1cc(F)c(F)cc1[C@H]2c1ccccc1` (single isomer, unassigned) [Compound 41A, (18*R,Z)-2,3-difluoro-12-hydroxy-18-phenyl-6,9-dihydro-18H-10,17-methanobenzo[b]pyrido[1,2-f][1]oxa[5,6,9]triazacyclotridecine-11,13-dione], for which the half-maximal cytotoxic concentration (CC50) in data set [1] is over 2000 nM. Further, the negative logarithm of the EC50 (pEC50) in data set [2] (Influenza A virus, A549, 20 h) is 6.53.

In data set [1], `O=C1c2c(O)c(=O)ccn2N2CN1C1(/C=C/COc3cccc4c3[C@H]2c2ccccc2SC4)CCCC1` (single isomer, unassigned) [Compound 156A, (17a′*S,*E)-12′-hydroxy-2′,17a′-dihydro-6′H-spiro[cyclopentane-1,9′-[3,4](epiprop[1]en[1]yl[3]ylidene)[10,17]methanobenzo[6,7]thiepino[4,5-c]pyrido[1,2-f][1]oxa[5,6,9]triazacyclotridecine]-11′,13′-dione] showed a CC50 of over 100 nM. Moreover, the negative logarithm of the EC50 (pEC50) in data set [2] (Influenza A virus, A549, 20 h) was 9.29.

As for `CC[C@H]1/C=C/COc2c(ccc(Cl)c2F)[C@H](c2ccccc2)N2CN1C(=O)c1c(O)c(=O)ccn12` (single isomer, unassigned) [Compound 170AA, (9*S,18*S,E)-3-chloro-9-ethyl-4-fluoro-12-hydroxy-18-phenyl-6,9-dihydro-18H-10,17-methanobenzo[b]pyrido[1,2-f][1]oxa[5,6,9]triazacyclotridecine-11,13-dione], the cytotoxic concentration (CC50) in data set [1] is over 100 nM. Besides, the pEC50 in data set [2] (Influenza A virus, A549, 20 h) is under 7.30.

`O=C1c2c(O)c(=O)ccn2N2CN1C/C=C/CCc1ccccc1[C@H]2c1cccc(F)n1` (single isomer, unassigned) [Compound 78B, (16*S,E)-16-(6-fluoropyridin-2-yl)-4-hydroxy-7,10,11,16-tetrahydro-6,17-methanobenzo[k]pyrido[1,2-b][1,2,5]triazacyclotridecine-3,5-dione] returned a CC50 in data set [1] of 61600 nM. The negative logarithm of the EC50 (pEC50) in data set [2] (Influenza A virus, A549, 20 h) is 5.19.

For `O=C1c2c(O)c(=O)ccn2N2CN1C/C=C\COc1cc(F)c(F)cc1[C@H]2c1ccccn1` (single isomer, unassigned) [Compound 70B, (18*S,*Z)-2,3-difluoro-12-hydroxy-18-(pyridin-2-yl)-6,9-dihydro-18H-10,17-methanobenzo[b]pyrido[1,2-f][1]oxa[5,6,9]triazacyclotridecine-11,13-dione], in data set [1], the cytotoxic concentration (CC50) is over 200 nM. For the same compound, the negative logarithm of the EC50 (pEC50) in data set [2] (Influenza A virus, A549, 20 h) was 7.49.

In data set [1], `O=C1c2c(O)c(=O)ccn2N2CN1C1(/C=C/COc3cccc4c3[C@@H]2c2ccccc2SC4)CC1` (single isomer, unassigned) [Compound 107A, (17a′*R,*E)-12′-hydroxy-2′,17a′-dihydro-6′H-spiro[cyclopropane-1,9′-[3,4](epiprop[1]en[1]yl[3]ylidene)[10,17]methanobenzo[6,7]thiepino[4,5-c]pyrido[1,2-f][1]oxa[5,6,9]triazacyclotridecine]-11′,13′-dione] came in with a CC50 of over 200 nM. In data set [2] (Influenza A virus, A549, 20 h), the pEC50 is under 7.00.

Regarding `O=C1c2c(O)c(=O)ccn2N2CN1CCCCCOc1cccc3c1[C@H]2c1ccccc1SC3` (single isomer, unassigned) [Compound 48A], the cytotoxic concentration (CC50) in data set [1] was over 2000 nM. The negative-log EC50 (pEC50) in data set [2] was under 6.00.

For `O=C1c2c(O)c(=O)ccn2N2CN1C/C=C\COc1cccc3c1[C@@H]2c1ccccc1OC3` (single isomer, unassigned) [Compound 53B, (21a*S,Z)-16-hydroxy-6,10,13,21a-tetrahydro-7,8-(epiprop[1]en[1]yl[3]ylidene)-14,21-methanobenzo[6,7]oxepino[4,5-c]pyrido[1,2-f][1]oxa[5,6,9]triazacyclotridecine-15,17-dione], the CC50 in data set [1] is over 2000 nM. Moreover, the pEC50 in data set [2] (Influenza A virus, A549, 20 h) is under 6.00.

As to `COC[C@@H]1/C=C/COc2c(ccc(F)c2F)[C@@H](c2ccccc2)N2CN1C(=O)c1c(O)c(=O)ccn12` (single isomer, unassigned) [Compound 153BA, (9*S,18*R,*E)-3,4-difluoro-12-hydroxy-9-(methoxymethyl)-18-phenyl-6,9-dihydro-18H-10,17-methanobenzo[b]pyrido[1,2-f][1]oxa[5,6,9]triazacyclotridecine-11,13-dione], the CC50 in data set [1] is over 100 nM. Also, in data set [2] (Influenza A virus, A549, 20 h), the pEC50 is 8.38.

`O=C1c2c(O)c(=O)ccn2N2CN1CC/C=C/COc1cccc3c1[C@@H]2c1ccccc1SC3` (single isomer, unassigned) [Compound 37C] showed a CC50 in data set [1] of over 2000 nM. The pEC50 in data set [2] (Influenza A virus, A549, 20 h) was under 6.00.

For `O=C1c2c(O)c(=O)ccn2N2CN1CC[C@@H]1C[C@@H]1COc1cccc3c1[C@H]2c1ccccc1SC3` (single isomer, unassigned) [Compound 144BA, (1*S,13*S,15*S)-7-hydroxy-17-oxa-24-thia-2,3,10-triazaheptacyclo[16.12.1.12,10.03,8.013,15.022,31.025,30]dotriaconta-4,18,20,22(31),25(30),26,28-heptaene-6,9-dione], the CC50 in data set [1] is over 200 nM. Also, the negative-log EC50 (pEC50) in data set [2] (Influenza A virus, A549, 20 h) is 7.14.

`CC(C)[C@@H]1/C=C/COc2c(ccc(F)c2F)[C@@H](c2ccccc2)N2CN1C(=O)c1c(O)c(=O)ccn12` (single isomer, unassigned) [Compound 128AA, (9*R,18*R,*E)-3,4-difluoro-12-hydroxy-9-isopropyl-18-phenyl-6,9-dihydro-18H-10,17-methanobenzo[b]pyrido[1,2-f][1]oxa[5,6,9]triazacyclotridecine-11,13-dione]: the CC50 in data set [1] is over 200 nM. The pEC50 in data set [2] (Influenza A virus, A549, 20 h) is under 7.00.
